Results taken from patent US7022484B2, “Methods for treating neuropathological states and neurogenic inflammatory states and methods for identifying compounds useful therein” (Board of Regents, The University of Texas System, priority 2000, dated 2006).

Assays:
rat arthritis model = assay: Paw withdrawal latency (PWL) to radiant heat in rat kaolin/carrageenan knee joint inflammation model; format: in vivo; details: spinal microdialysis pre-treatment; 4 hours after induction of arthritis
Method: All studies followed the guidelines of the Institute Animal Care and Use Committee, in accordance with the guidelines of the National Institutes of Health. All animals were hosted in a room with a constant ambient temperature of 22° C. and 12 hour light/dark cycle with free access to food and water. Eighty-five Sprague-Dawley rats (250–300 grams) total were used in experiments conducted for biochemical, behavioral, and immunocytochemistry studies. […] On Day 2 baseline behavioral testing was followed by infusion of agents for 1.5 hours (pretreatment) prior to induction of knee joint inflammation under brief anesthesia. Behavioral testing was repeated 4 hours after induction of joint inflammation. Anesthetized animals were either transcardially perfused with aldehydes for immunohistochemical studies or fresh, frozen tissues collected for biochemical studies.
A microdialysis fiber was implanted into the spinal dorsal horn of anesthetized rats (sodium pentobarbital, 50 mg/kg) one day prior to the induction of arthritis according to the procedure of Skilling et al. (J. Neurochem., 51:127–132 (1988)), as described in Sluka et al. (Neurosci. Lett., 145:141–144 (1992)). Briefly, a small midline incision was made in the skin over the T12 vertebral level. The vertebrae were cleared of muscle and two 1 millimeter (mm) holes were drilled in the lateral aspect of both sides of the T12 vertebrae to expose the L4 spinal segment. A microdialysis fiber ([…], 45,000 MW cut-off, Hospal, AN69, Hospal Industrie, Meyzieu, France), was passed transversely across the deep dorsal horn and stabilized with dental cement. The microdialysis fiber was then passed through the holes in the vertebrae and transversely through the dorsal horn of the spinal cord. A 2 mm section of the microdialysis fiber lies in the dorsal horn at the level of L3–4 segment. The tubing was coated with epoxy except for a permeable portion passing through the spinal grey matter. The microdialysis fiber was connected to PE20 tubing (Becton Dickinson and Company, San Mateo, Calif.) which was tunneled under the skin to the nape of the neck. Alternatively as a systemic control for drug administration, the microdialysis fiber was implanted only in the subcutaneous tissue over the back muscle and tunneled to the neck. Artificial cerebrospinal fluid (aCSF) was made as described by Sorkin et al. (J. Neurosci. Methods, 23, 131–138 (1988)) and was infused (5 microliters/minute) for 1.5 hours and then the tube was heat-sealed for use on the following day.
Dose response curves were generated for Genistein with animals receiving Genistein spinally at concentration of 0.2 mM (n=3), 0.5 mM (n=3), 1 mM (n=9), and 2 mM (n=3). Animals received Lavendustin A or B spinally at concentrations of 0.1 mM (n=3), 0.5 mM (n=3), and 1 mM (n=5) as a positive and negative control for Genistein. […] Daidzein was tested at a dose of 1 mM (n=3). […] Eight additional animals received the vehicle, 50% DMSO in aCSF, as a control.
An acute inflammatory response restricted to the knee joint can be induced by the injection of 3% kaolin and 3% carrageenan (in sterile saline; 0.1 ml; pH 7.4) into the joint cavity while the animal is briefly anesthetized with sodium methohexital (Brevital, 60 mg/kg, i.p.). Kaolin and carrageenan were obtained from Fisher Scientific, St. Louis, Mo. The knee joint is flexed manually until the rat awakes (approximately 5–10 minutes). In this arthritis model in the awake rat, localized joint swelling, as well as limping and guarding of the limb, are well developed at 4 hours (Sluka et al., Pain, 59, 95–100 (1994)) when behavioral testing begins.
Fifty-five rats were used for behavioral studies. Four hours after induction of the arthritis, the joint is swollen and increased withdrawal responses to radiant heat and spontaneous guarding of the limb were noted. The increased responsiveness to noxious stimuli indicates the presence of secondary hyperalgesia. […]

[1] = tested on: protein tyrosine kinase (PTK); details: cited from earlier work
NMDA currents = details: patch clamp studies; cited from earlier work
NR1 subunit [2] = assay: Immunocytochemistry of NR1 translocation in neuroblastoma clonal line SHSY5Y; format: cell-based, human; details: neuroblastoma clonal cell model
NR1 subunit [3] = assay: Immunocytochemistry of NR1 translocation in synovial clonal line SW982; format: cell-based, human; details: synovial clonal cell model
Method: (§1) The cultured cell lines used in these studies were the human neuroblastoma clonal line, SHSY5Y, and the human synovial sarcoma clonal line, SW982, both available through the American Tissue Type Culture Collection (item number CRL 2266 and HTB-93, respectively). Cells were grown in Dulbecco's Modification of Eagles Medium (DMEM) without L-glutamine, with 4.5 grams/Liter glucose, and with 10% bovine fetal serum in a tissue culture incubator at 37° C. in a gaseous mixture of O2/CO2. Cells were routinely split as necessary to maintain proper cell density. Cells were removed from plates by adding TRYPSIN/EDTA in Hank's Balanced Salt solution. After cell counts, approximately 10,000 cells were plated per well in a culture dish. For experiments, the cells were plated into 35 mm Petri dishes or 6- or 24-well plates as needed.
For immunocytochemistry experiments and some western blot experiments, SW982 cells were exposed to glutamate (1 μM to 10 μM), or glutamate analog NMDA (or related glutamate compound)(5 μM) and Genistein (10 mM). At various timepoints of exposure, including 4, 12, and 24 hours, cells were collected for Western blot measurement of NR1 or fixed with aldehydes and stained to visualize the location of glutamate receptor subunit NR1 using a specific antibody directed to either the C-terminus or the N-terminus of the NR1 protein. […]

NR1 subunit [4] = assay: Western blot of NR1 in cytosolic and nuclear extracts of SW982 cells; format: cell-based, human; details: 12 hours, increasing concentrations of NMDA
Method: as §1, with “needed. […]” for “needed.”
Western blot analysis was used to measure NR1 in both nuclear and cytosolic or total protein extracts using established methods (Kaufmann et al., J. Neurochem., 76, 1099–1108 (2001)). […] After three washes with Tris-buffered saline, immunoreactive bands were detected by a chemiluminescent Western blot detection kit (Amersham, Buckingamshire, UK, Catalog Number RPN2106) according to the manufacturer's instructions.

SMILES	development of secondary hyperalgesia (rat arthritis model)	PTK inhibitory activity [1]	effect on NMDA currents (NMDA currents)	NR translocation to the nucleus (NR1 subunit [2])	NR translocation to the nucleus (NR1 subunit [3])	NR1 in the cytosol (NR1 subunit [4])	NR1 in the nuclear compartment (NR1 subunit [4])
O=c1c(-c2ccc(O)cc2)coc2cc(O)ccc12 [Daidzein]	ineffective in altering the nociceptive outcome of knee joint inflammation	lacks PTK inhibitory activity	has no effect on NMDA currents				
CN[C@H](CC(=O)O)C(=O)O [NMDA, N-methyl-D-aspartate]				replicated the visualization of NR translocation to the nucleus	replicated the visualization of NR translocation to the nucleus	dose-dependent reduction of NR1 in the cytosol	appearance of NR1 in the nuclear compartment
